The test system of one assay is FaDu. Nature of the assay: Inhibition of topoisomerase-2 in human FADU cells at 2 times antiproliferative IC50 after 24 hrs by ELISA relative to control. In kind it is cell-based. (In an ELISA, binding on a coated surface is turned into a signal by an enzyme label.)
The nature of assay [1]: Antiproliferative activity against HEK293 cells after 48 hrs by SRB assay. In kind it is cell-based. As to conditions: Homo sapiens, HEK293, 48 h.
Assay [2] in a line: Antiproliferative activity against human DLD1 cells after 48 hrs by SRB assay. In kind it is functional, cell-based. As to conditions: DLD-1, 48 h. (In SRB staining, fixed cells bind dye roughly in proportion to their protein.)
Assay [3] can be described thus: Antiproliferative activity against human DU145 cells after 48 hrs by SRB assay. It is filed as functional, cell-based. The note with it: DU-145, 48 h.
Assay [4] is described as follows: Antiproliferative activity against human MCF7 cells after 48 hrs by SRB assay. It is filed as functional, cell-based. As to conditions: MCF7, 48 h.
Assay [5] is described as follows: Antiproliferative activity against human FADU cells after 48 hrs by SRB assay. It is filed as functional, cell-based.
Assay [6] can be described thus: Antiproliferative activity against human A549 cells after 48 hrs by SRB assay. In kind it is functional, cell-based. As to conditions: A549, 48 h.

What is called inhibition is the percentage by which the read-out fell short of the control. Read a low inhibition as a weak effect. In general, IC50 refers to the midpoint of a concentration-inhibition curve. Low readings indicate greater potency in that assay, high ones weaker potency in that assay.

`CC1(C)CCC2=C(O1)c1ccccc1C(=O)C2=O` [LAPACHONE] yielded an inhibition in the assay on FaDu of 53.9%. Also, the concentration for half-maximal inhibition (IC50) in assay [1] is 25.3 µM.
For `COc1cc([C@@H]2c3cc4c(cc3[C@@H](O[C@@H]3O[C@@H]5CO[C@@H](C)O[C@H]5[C@H](O)[C@H]3O)[C@H]3COC(=O)[C@H]23)OCO4)cc(OC)c1O` [ETOPOSIDE], the half-maximal inhibitory concentration (IC50) in assay [2] is 8.11 µM; in assay [3] it was 10.6 µM; in assay [4] it was > 30 µM; in assay [5], 16 µM; in assay [6], > 30 µM; in assay [1], 7.51 µM. In addition, in the assay with FaDu, the inhibition is 51.7%.
With `CCOC(=O)COC1=C(CC(=O)OCC)C(=O)c2ccccc2C1=O`, the IC50 in assay [2] was > 30 µM; in assay [3], > 30 µM; in assay [4], > 30 µM; in assay [5] it was 21.8 µM; in assay [6], 21.1 µM; in assay [1], > 150 µM. In the assay with FaDu, the inhibition was 21.4%.
Consider `COc1cc(COC2=CC(=O)c3ccccc3C2=O)cc(OC)c1OC`, for which the half-inhibitory concentration (IC50) in assay [2] was > 30 µM; in assay [3], 25.2 µM; in assay [4], > 30 µM; in assay [5] it was 16.5 µM; in assay [6], 18.9 µM; in assay [1] it was > 150 µM. The inhibition with FaDu was found to be 14.7%.
On to `CCOC(=O)COC1=CC(=O)c2ccccc2C1=O`, for which the IC50 in assay [2] is > 30 µM; in assay [3] it was > 30 µM; in assay [4], > 30 µM; in assay [5], 19.7 µM; in assay [6], 15.5 µM; in assay [1], > 150 µM. The same compound registered an inhibition in the assay on FaDu of 16.8%.

(Values after ChEMBL document CHEMBL3877316, “Synthesis of pharmacologically important naphthoquinones and anticancer activity of 2-benzyllawsone through DNA topoisomerase-II inhibition” (Bioorg Med Chem, 2017).)
